Measured values from patent US9120770B2, “Substituted pyridine and pyrazine compounds as PDE4 inhibitors” (DART NEUROSCIENCE (CAYMAN) LTD., priority 2013, dated 2015).

target: PDE4D3 (Homo sapiens, UniProt Q08499)
Sequence (Q08499 1-673 isoform Q08499-2): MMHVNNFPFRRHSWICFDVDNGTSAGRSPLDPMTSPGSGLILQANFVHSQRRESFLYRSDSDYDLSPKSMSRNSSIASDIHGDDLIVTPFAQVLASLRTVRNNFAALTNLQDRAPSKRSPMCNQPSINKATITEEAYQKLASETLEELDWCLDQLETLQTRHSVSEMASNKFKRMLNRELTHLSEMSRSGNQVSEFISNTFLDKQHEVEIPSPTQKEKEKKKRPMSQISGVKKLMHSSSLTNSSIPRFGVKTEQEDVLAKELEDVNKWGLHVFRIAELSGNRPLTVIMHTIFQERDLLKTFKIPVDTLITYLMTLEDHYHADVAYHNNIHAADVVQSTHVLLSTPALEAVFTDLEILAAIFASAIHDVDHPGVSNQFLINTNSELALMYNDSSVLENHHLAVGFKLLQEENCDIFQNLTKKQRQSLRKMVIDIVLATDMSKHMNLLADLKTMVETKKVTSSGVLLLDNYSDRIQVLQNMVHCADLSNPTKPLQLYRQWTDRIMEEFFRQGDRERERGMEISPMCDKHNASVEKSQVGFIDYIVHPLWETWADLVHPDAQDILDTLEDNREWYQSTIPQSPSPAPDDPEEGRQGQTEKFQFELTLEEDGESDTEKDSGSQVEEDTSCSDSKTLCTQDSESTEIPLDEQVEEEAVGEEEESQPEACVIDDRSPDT

EC50 [nM]	Compound
< 100	COc1ncc(Cc2cnc(N)nc2)cc1-c1ccnc(OC(F)F)c1 [Example 47, 5-({5-[2-(Difluoromethoxy)pyridin-4-yl]-6-methoxypyridin-3-yl}methyl)pyrimidin-2-amine]
1000 to 10000	COc1ncc(Cn2cnc(N)n2)cc1-c1cccc(OC2CC2)c1 [Example 225, 1-{[5-(3-Cyclopropoxyphenyl)-6-methoxypyridin-3-yl]methyl}-1H-1,2,4-triazol-3-amine]
< 100	COc1ncc(Cc2sc(C)nc2C)cc1-c1cccc(Cl)c1 [Example 66, 3-(3-Chlorophenyl)-5-[(dimethyl-1,3-thiazol-5-yl)methyl]-2-methoxypyridine]
100 to 1000	CS(=O)(=O)c1ccc(Cc2cnc(OC(F)F)c(-c3cccc(Cl)c3)c2)cc1 [Example 45, 3-(3-Chlorophenyl)-2-(difluoromethoxy)-5-[(4-methanesulfonylphenyl)methyl]pyridine]
100 to 1000	Nc1ncc(Cc2cnc(OC(F)F)c(-c3cccc(OC4COC4)c3)c2)cn1 [Example 43, 5-{[6-(Difluoromethoxy)-5-[3-(oxetan-3-yloxy)phenyl]pyridin-3-yl]methyl}pyrimidin-2-amine]
< 100	COc1ncc(Cn2cnc(CO)n2)cc1-c1cccc(OC(F)F)c1 [Example 202, [1-({5-[3-(Difluoromethoxy)phenyl]-6-methoxypyridin-3-yl}methyl)-1H-1,2,4-triazol-3-yl]methanol]
< 100	CCOc1ncc(Cn2cc(CO)nn2)cc1-c1cccc(OC(F)F)c1 [Example 263, [1-({5-[3-(Difluoromethoxy)phenyl]-6-ethoxypyridin-3-yl}methyl)-1H-1,2,3-triazol-4-yl]methanol]
< 100	CCOc1ncc(Cn2cnc(COC)n2)cc1-c1cccc(OC(F)F)c1 [Example 165, 3-[3-(Difluoromethoxy)phenyl]-2-ethoxy-5-{[3-(methoxymethyl)-1H-1,2,4-triazol-1-yl]methyl}pyridine]
1000 to 10000	COc1ncc(Cc2c(C)noc2C)nc1-c1cccc(Cl)c1 [Example 98, 3-(3-Chlorophenyl)-5-[(dimethyl-1,2-oxazol-4-yl)methyl]-2-methoxypyrazine]
100 to 1000	CCOc1ncc(Cn2cnc(C(=O)OC)n2)nc1-c1cccc(OC(F)F)c1 [Example 191, Methyl 1-((6-(3-(difluoromethoxy)phenyl)-5-ethoxypyrazin-2-yl)methyl)-1H-1,2,4-triazole-3-carboxylate]
> 10000	COc1cccc(-c2cc(Cn3cncn3)cnc2OC)n1 [Example 4, 2-Methoxy-3-(6-methoxypyridin-2-yl)-5-(1H-1,2,4-triazol-1-ylmethyl)pyridine]
< 100	COc1ncc(Cn2cnc(CO)n2)cc1-c1ccnc(OC(F)F)c1 [Example 205, [1-({5-[2-(Difluoromethoxy)pyridin-4-yl]-6-methoxypyridin-3-yl}methyl)-1H-1,2,4-triazol-3-yl]methanol]
1000 to 10000	COc1ncc(Cn2cccn2)nc1-c1cccc(Cl)c1 [Example 182, 3-(3-Chlorophenyl)-2-methoxy-5-(1H-pyrazol-1-ylmethyl)pyrazine]
100 to 1000	COc1ncc(Cc2ccc(C(N)=O)nc2)cc1-c1cccc(Cl)c1 [Example 116, 5-{[5-(3-Chlorophenyl)-6-methoxypyridin-3-yl]methyl}pyridine-2-carboxamide]
100 to 1000	COc1ncc(Cc2cnc(C(N)=O)nc2)cc1-c1cccc(F)c1 [Example 118, 5-{[5-(3-Fluorophenyl)-6-methoxypyridin-3-yl]methyl}pyrimidine-2-carboxamide]
1000 to 10000	CCOc1ncc(Cn2ncc(Cl)c2N)cc1-c1cccc(Cl)c1 [Example 235, 4-Chloro-1-{[5-(3-chlorophenyl)-6-ethoxypyridin-3-yl]methyl}-1H-pyrazol-5-amine]
100 to 1000	CCOc1ncc(Cn2cc(C(F)F)nn2)cc1-c1cccc(OC(F)F)c1 [Example 269, 3-[3-(Difluoromethoxy)phenyl]-5-{[4-(difluoromethyl)-1H-1,2,3-triazol-1-yl]methyl}-2-ethoxypyridine]
100 to 1000	COc1ncc(Cn2cncn2)cc1-c1cccc(C#N)c1 [Example 136, 3-[2-Methoxy-5-(1H-1,2,4-triazol-1-ylmethyl)pyridin-3-yl]benzonitrile]
100 to 1000	COc1ncc(Cc2ccc(C(N)=O)nc2)nc1-c1cccc(Cl)c1 [Example 90, 5-{[6-(3-Chlorophenyl)-5-methoxypyrazin-2-yl]methyl}pyridine-2-carboxamide]
1000 to 10000	COc1ncc(Cc2ccnc(C#N)c2)cc1-c1cccc(Cl)c1 [Example 62, 4-{[5-(3-Chlorophenyl)-6-methoxypyridin-3-yl]methyl}pyridine-2-carbonitrile]
1000 to 10000	CCOc1ncc(Cn2ncnc2[N+](=O)[O-])nc1-c1cccc(OC(F)F)c1 [Example 194, 3-(3-(Difluoromethoxy)phenyl)-2-ethoxy-5-((5-nitro-1H-1,2,4-triazol-1-yl)methyl)pyrazine]
1000 to 10000	COc1ncc(C(c2ccc(F)cc2)N(C)C)cc1-c1cccc(Cl)c1 (stereo not shown) [Example 19, {[5-(3-Chlorophenyl)-6-methoxypyridin-3-yl](4-fluorophenyl)methyl}dimethylamine]

EC50 [nM]	Compound
< 100	CCOc1ncc(Cn2ccc(C(N)=O)n2)cc1-c1cccc(Cl)c1 [Example 168, 1-{[5-(3-Chlorophenyl)-6-ethoxypyridin-3-yl]methyl}-1H-pyrazole-3-carboxamide]
1000 to 10000	COc1ncc(Cc2cnc(NC(C)C)nc2)cc1-c1cccc(Cl)c1 [Example 77, 5-{[5-(3-Chlorophenyl)-6-methoxypyridin-3-yl]methyl}-N-(propan-2-yl)pyrimidin-2-amine]
100 to 1000	COc1nc(C)c(Cn2cncn2)cc1-c1cccc(Cl)c1 [Example 112, 3-(3-Chlorophenyl)-2-methoxy-6-methyl-5-(1H-1,2,4-triazol-1-ylmethyl)pyridine]
100 to 1000	CCOc1ncc(Cn2cnc(CO)n2)nc1-c1cccc(Cl)c1 [Example 212, (1-{[6-(3-Chlorophenyl)-5-ethoxypyrazin-2-yl]methyl}-1H-1,2,4-triazol-3-yl)methanol]
1000 to 10000	N#Cc1ncc(Cc2cnc(OC(F)F)c(-c3cccc(Cl)c3)c2)cn1 [Example 35, 5-{[5-(3-Chlorophenyl)-6-(difluoromethoxy)pyridin-3-yl]methyl}pyrimidine-2-carbonitrile]
< 100	COC(=O)Cc1ccc(Cc2cnc(OC(F)F)c(-c3cccc(Cl)c3)c2)cc1 [Example 100, Methyl 2-(4-{[5-(3-chlorophenyl)-6-(difluoromethoxy)pyridin-3-yl]methyl}phenyl)acetate]
1000 to 10000	COc1ncc(Cc2ccc(=O)n(C)c2)cc1-c1cccc(Cl)c1 [Example 52, 5-{[5-(3-Chlorophenyl)-6-methoxypyridin-3-yl]methyl}-1-methyl-1,2-dihydropyridin-2-one]
100 to 1000	FC(F)Oc1ncc(Cc2ccc(OCC3CC3)nc2)cc1-c1cccc(Cl)c1 [Example 102, 3-(3-Chlorophenyl)-5-{[6-(cyclopropylmethoxy)pyridin-3-yl]methyl}-2-(difluoromethoxy)pyridine]
100 to 1000	CNC(=O)c1ccc(Cc2cnc(OC(F)F)c(-c3cccc(Cl)c3)c2)cn1 [Example 244, 5-{[5-(3-Chlorophenyl)-6-(difluoromethoxy)pyridin-3-yl]methyl}-N-methylpyridine-2-carboxamide]
100 to 1000	NC(=O)c1ncc(Cc2cnc(OC(F)F)c(-c3cccc(Cl)c3)c2)cn1 [Example 117, 5-{[5-(3-Chlorophenyl)-6-(difluoromethoxy)pyridin-3-yl]methyl}pyrimidine-2-carboxamide]
< 100	COc1ncc(Cc2cnc(C#N)nc2)nc1-c1cccc(OC(F)F)c1 [Example 107, 5-({6-[3-(Difluoromethoxy)phenyl]-5-methoxypyrazin-2-yl}methyl)pyrimidine-2-carbonitrile]
< 100	COc1ncc(Cc2cnn(C)c2)nc1-c1cccc(Cl)c1 [Example 58, 3-(3-Chlorophenyl)-2-methoxy-5-[(1-methyl-1H-pyrazol-4-yl)methyl]pyrazine]
< 100	CCOc1ncc(Cn2cnc(C(F)F)n2)cc1-c1cccc(OC(F)F)c1 [Example 260, 3-[3-(Difluoromethoxy)phenyl]-5-{[3-(difluoromethyl)-1H-1,2,4-triazol-1-yl]methyl}-2-ethoxypyridine]
100 to 1000	CCOc1ncc(Cn2ncnc2C(F)(F)F)cc1-c1cccc(OC(F)F)c1 [Example 164, 3-[3-(Difluoromethoxy)phenyl]-2-ethoxy-5-{[5-(trifluoromethyl)-1H-1,2,4-triazol-1-yl]methyl}pyridine]
1000 to 10000	COC(=O)c1ncn(Cc2cnc(OC)c(-c3cccc(OC(F)F)c3)n2)n1 [Example 196, Methyl 1-({6-[3-(difluoromethoxy)phenyl]-5-methoxypyrazin-2-yl}methyl)-1H-1,2,4-triazole-3-carboxylate]
1000 to 10000	CCOc1ncc(Cn2cnc(N)n2)nc1-c1cccc(OC(F)F)c1 [Example 237, 1-((6-(3-(Difluoromethoxy)phenyl)-5-ethoxypyrazin-2-yl)methyl)-1H-1,2,4-triazol-3-amine]
> 10000	COc1ncc(Cn2cc(N)cn2)nc1-c1cccc(Cl)c1 [Example 236, 1-{[6-(3-Chlorophenyl)-5-methoxypyrazin-2-yl]methyl}-1H-pyrazol-4-amine]
> 10000	COc1ncc(Cn2cncn2)cc1-c1cncc(C)c1 [Example 6, 2-Methoxy-3-(5-methylpyridin-3-yl)-5-(1H-1,2,4-triazol-1-ylmethyl)pyridine]
< 100	CCOc1ncc(Cc2ccc(C(N)=O)nc2)nc1-c1cccc(OC(F)F)c1 [Example 124, 5-({6-[3-(Difluoromethoxy)phenyl]-5-ethoxypyrazin-2-yl}methyl)pyridine-2-carboxamide]
1000 to 10000	COC(=O)c1ncn(Cc2cnc(OC)c(-c3cccc(Cl)c3)n2)n1 [Example 127, Methyl 1-{[6-(3-chlorophenyl)-5-methoxypyrazin-2-yl]methyl}-1H-1,2,4-triazole-3-carboxylate]
100 to 1000	COc1ncc(Cc2ccnc(N)c2)cc1-c1cccc(Cl)c1 [Example 60, 4-{[5-(3-Chlorophenyl)-6-methoxypyridin-3-yl]methyl}pyridin-2-amine]
